These results are taken from article PMC5128008, “Antimicrobial activity and stability of the D-amino acid substituted derivatives of antimicrobial peptide polybia-MPI” (AMB Express, 2016).

In one data set the test system is human erythrocytes. Briefly: Hemolytic activity. The format is cell-based. The settings on record: 37 °C, Fig. 2; for hemolytic activity under the concentration of 100 μM: 8% human erythrocytes in PBS pH 7.4, 60 min, hemoglobin release at 490 nm; for hemolytic activity compared to polybia-MPI: 8% human erythrocytes in PBS pH 7.4, peptide up to 256 µM, 60 min, 490 nm. Here is the method: Fresh human blood was collected in heparinized-tube, diluted in cold PBS (pH 7.4) and centrifuged at 800g for 10 min to remove the serum and buffy coat. The erythrocytes were washed twice time and re-suspended in the same buffer to a final erythrocyte concentration of 8% for the hemolysis assay (Sharma and Sharma [2001]). The RBC (red blood cell) suspension of 100 µl was transferred into a 96 well microtiter plate. Peptides were dissolved in PBS (pH 7.4) of different concentrations from 2 to 256 µM were incubated with 8% erythrocytes suspension for 60 min at 37 °C. Subsequently, the plate was centrifuged at 1200×g for 10 min. Then, aliquots of 100 µl supernatant were retransferred to an another 96-well plates and measured to monitor the release of hemoglobin by microplate reader (Bio-Rad 680) at 490 nm, which indicated RBC membrane damage. 100 µl RBC (red blood cell) suspension with 0.2% Triton-X 100 or PBS was used as positive and negative control, respectively. Hemolysis rate was determined as below: Hemolysisrate(%)=(A-A2)/(A1-A2)×100% where A is the absorbance of indicator mixtures with different factors, A1 and A2 are the positive control, and the negative control, respectively (Kim et al. [2011]).
Fig. 2 The hemolytic activity of polybia-MPI and synthetic D-MPI and D-lys-MPI against human erythrocytes were determined. Fresh human blood was collected and centrifuged to remove the serum and buffy coat, and re-suspended to a final erythrocyte concentration of 8% erythrocytes suspension. Then, peptides of different concentrations from 2 to 256 μM were incubated with erythrocytes suspension for 60 min. Subsequently, the erythrocytes suspension was centrifuged and measured to monitor the release of hemoglobin at 490 nm

Data set [1] in a line: RP-HPLC analysis of stability to proteases in human serum. The data set is classed as in vitro ADME. The settings on record: method details not given. The source says: In the present study, HPLC was used to determine the stability of polybia-MPI, D-lys-MPI and D-MPI to trypsin, chymotrypsin and proteases in human serum.
The test system of another data set is (ATCC 700603). The settings on record: ATCC 700603, 18 h.
For data set [2], the system named is all tested bacterial and fungal strains. Briefly: MIC, broth microdilution, summary over the panel. The format is cell-based. The settings on record: summary of Table 1, "almost in the range". Here is the method: The minimal inhibitory concentration (MIC) of the peptides was measured in triplicate by the standard broth microdilution method (Peterson et al. [1980]; Wang et al. [2012]). In brief, bacteria/fungi were cultured overnight to mid-logarithmic-phase in Mueller–Hinton broth (MHB)/Sabouraud dextrose broth. The cultures were diluted to a final concentration of 2 × 10^4 cfu/ml in fresh Mueller–Hinton broth (MHB)/Sabouraud dextrose broth. Each well of 96-well propylene microtitre plates was filled with 100 µl cell suspension and 100 μl peptide solution of twofold diluted serially. And the final concentrations of peptide mixtures ranged from 1 to 256 µM. Controls were done without peptides. After 18 h of incubation at 37 °C (bacteria)/35 °C (fungi), the minimal inhibitory concentration (MIC) of the peptides was evaluated by visible turbidity in each well.
In general terms: In broth dilution the organism is exposed to a series of concentrations in liquid medium.

The test system of data set [3] is trypsin. Briefly: Viability assay: antimicrobial activity against E. coli after trypsin treatment (Fig. 5). The format is in vitro ADME. Particulars: 37 °C, then E. coli at MIC, OD 600 nm. On the procedure:
Viability assay different concentration of trypsin (from 0.0002 to 2 mg/ml) incubated with peptides for 1 or 6 h at 37 °C, and the enzymatic activity was terminated by additional heat inactivation at 60 °C for 20 min. Then the trypsin treated peptides were incubated with Escherichia coli (ATCC25922) at the concentration of MIC in 96-wells microtiter plate overnight at 37 °C (Choi et al. [2013]). The growth inhibitory effect was determined by measuring the absorbance at 600 nm. Then we took 100 μl samples of 6 h from each well with the concentration of 0.2 mg/ml and plated onto MH broth ager after dilution. After overnight incubation at 37 °C, photos of plates were photographed and the colonies on the plate were counted.

In data set [4] the test system is chymotrypsin. Briefly: Viability assay: antimicrobial activity against E. coli after chymotrypsin treatment (Fig. 5). Particulars: 37 °C, then E. coli at MIC, OD 600 nm. The format is in vitro ADME.
Data set [5] deals with trypsin. Briefly: Radial diffusion assay after trypsin pre-incubation. The format is in vitro ADME. The settings on record: pre-incubation 4 h 37 °C, plates 18–24 h 37 °C, Fig. 6. On the procedure: (§1) The enzymatic stability of Polybia-MPI and its analogues was evaluated by a modification of the sensitive radial diffusion assay. The bacteria were cultured until the optical density at 600 nm (OD600) of an aliquot reached 0.5. One milliliter of the bacteria suspension was added to 100 ml of previously autoclaved, warm Mueller–Hinton agar (MHA)/Sabouraud dextrose agar. The medium were poured into layer of a 5 mm deep. Wells were performed with a sterile plastic bore of a 3-mm-diameter gel punch. Following the addition of 20 µl pre-incubated mixture of peptides and different concentrations of trypsin or chymotrypsin for 4 h into wells. The plates were incubated at 37 °C for 18 to 24 h. An equal volume of 20 µl mixture had no trypsin or chymotrypsin was used as the control. The size of the clear zones surrounding each well as indicators of the enzymatic stability of Polybia-MPI and its analogues.
(§2) Fig. 6 The viability of bacteria/fungi after incubation with peptides in the presence/absence of enzyme. Each peptide was pre-incubated with different concentrations of chymotrypsin (a) or trypsin (b) at 37 °C for 4 h. Then the samples were heat inactivated and poured into wells of plates. The plates were incubated at 37 °C for 18–24 h. Controls were without trypsin or chymotrypsin

Data set [6] has as its system chymotrypsin. Briefly: Radial diffusion assay after chymotrypsin pre-incubation. The format is in vitro ADME. Particulars: pre-incubation 4 h 37 °C, plates 18–24 h 37 °C, Fig. 6. Here is the method:
as §1, §2

In data set [7] the test system is trypsin. Briefly: Bactericidal activity after trypsin treatment, colony plates (Fig. 4). The settings on record: peptide with trypsin 4 h 37 °C, enzyme heat inactivated at 60 °C, E. coli co-incubated 3 h, plated 24 h.
Description: To test the stability of polybia-MPI and D-MPI, first 1 mg/l of the peptides were incubated with trypsin and chymotrypsin for 4 h for degradation. After the enzyme was heat inactivated at 60 °C for 15 min, E. coli was added and co-incubated for 3 h. Then, the treated bacteria were coated to plate and incubated at 37 °C for 24 h.
Peptides were incubated with the same volume of PBS (Left) or trypsin (Right) at 37 °C for 4 h. The enzyme was heat inactivated at 60 °C for 20 min, and E. coli suspension was added and co-incubated for 3 h. Then, the mixtures were plated onto MH broth ager and incubated for 18–24 h. Pictures of each plate were photographed

Values after ≈ are worked out from the molar mass of the structure shown. Where a SMILES comes first, the peptide text is derived from it. Where no end group is shown, it is not given here. [ ]: non-standard residue; d: D form.

In the case of `CC[C@H](C)[C@H](N)C(=O)N[C@@H](CC(=O)O)C(=O)N[C@@H](Cc1c[nH]c2ccccc12)C(=O)N[C@H](CCCCN)C(=O)N[C@H](CCCCN)C(=O)N[C@@H](CC(C)C)C(=O)N[C@@H](CC(C)C)C(=O)N[C@@H](CC(=O)O)C(=O)N[C@@H](C)C(=O)N[C@@H](C)C(=O)N[C@H](CCCCN)C(=O)N[C@@H](CCC(N)=O)C(=O)N[C@H](C(=O)N[C@@H](CC(C)C)C(N)=O)[C@@H](C)CC` [D-lys-MPI] (H-IDW[dK][dK]LLDAA[dK]QIL-NH2), in the data set with human erythrocytes, the “hemolytic activity under the concentration of 100 μM” value (from here on “hemolytic activity … of 100 μM”) is listed as “no significant hemolytic activity” and the “hemolytic activity compared to polybia-MPI” value was “abrogated”. For the same compound, the “susceptibility to proteases in human serum by HPLC profile” value (shortened to “susceptibility to proteases”) in data set [1] is “not or only partly degraded”. Also, the MBC/MFC with (ATCC 700603) was more than 256 µM.
Take `CC[C@@H](C)[C@@H](N)C(=O)N[C@H](CC(=O)O)C(=O)N[C@H](Cc1c[nH]c2ccccc12)C(=O)N[C@H](CCCCN)C(=O)N[C@H](CCCCN)C(=O)N[C@H](CC(C)C)C(=O)N[C@H](CC(C)C)C(=O)N[C@H](CC(=O)O)C(=O)N[C@H](C)C(=O)N[C@H](C)C(=O)N[C@H](CCCCN)C(=O)N[C@H](CCC(N)=O)C(=O)N[C@@H](C(=O)N[C@H](CC(C)C)C(N)=O)[C@H](C)CC` [D-MPI] (H-[dI][dD][dW][dK][dK][dL][dL][dD][dA][dA][dK][dQ][dI][dL]-NH2): the “MIC values, range over all tested bacterial and fungal strains” value in [2] was in the range of 8 to 64 µM. Further, in the data set with human erythrocytes, the “hemolytic activity … of 100 μM” value was “no significant hemolytic activity” and the “hemolytic activity compared to polybia-MPI” value was “decreased”. In the data set on trypsin [3] (2 mg/ml trypsin, 6 h), the “antimicrobial activity after incubation with trypsin” value was “retained its antimicrobial activity”. Further, in the data set with chymotrypsin [4] (2 mg/ml chymotrypsin, 6 h), the “antimicrobial activity after incubation with chymotrypsin” value is “retained its antimicrobial activity”. The “inhibition zone diameters after incubation with trypsin” value in the data set on trypsin [5] (2 mg/ml trypsin) is recorded as “almost the same as control”. Further, the “inhibition zone diameters after incubation with chymotrypsin” value in the data set with chymotrypsin [6] (2 mg/ml chymotrypsin) is reported as “almost the same as control”. In [1], the “susceptibility to proteases” value is on record as “not or only partly degraded”. Also, the MBC/MFC with (ATCC 700603) is 128 µM (≈ 212 µg/mL). Moreover, the “E. coli colonies on plate after treatment with trypsin-incubated peptide” value with trypsin [7] is on record as “no colony”.
For IDWKKLLDAAKQIL-NH2 [Polybia-MPI], in the data set with human erythrocytes, the “hemolytic activity … of 100 μM” value is “no significant hemolytic activity”. Moreover, the “trypsin concentration that totally inhibits the antimicrobial activity of the peptide” value in the data set with trypsin [3] (incubation 1 h) amounted to 0.002 mg/mL. Besides, the “chymotrypsin concentration that totally inhibits the antimicrobial activity of the peptide” value in the data set on chymotrypsin [4] (incubation 1 h) is 0.002 mg/mL. Besides, the “inhibition zone diameters after incubation with trypsin” value with trypsin [5] (0.02–2 mg/ml trypsin) is on record as “decreased even disappeared”. In the data set on chymotrypsin [6] (0.02–2 mg/ml chymotrypsin), the “inhibition zone diameters after incubation with chymotrypsin” value was “decreased even disappeared”. For the same compound, the “susceptibility to proteases” value in data set [1] is on record as “susceptible”. Further, the MBC/MFC against (ATCC 700603) is listed as 256 µM. The “E. coli colonies on plate after treatment with trypsin-incubated peptide” value in the data set on trypsin [7] is “many colonies”.
